Test results as given in patent publication US20260217660A1, “INHIBITORS OF ACTIVIN RECEPTOR TYPE I (ACVRI) AND ACTIVIN RECEPTOR LIKE TYPE I (ACVRLI), AND METHODS USING SAME” (Baylor College of Medicine, priority 2023, published 2026).
Substitutions are numbered along the chain they refer to.

Key:
ACVR1 = target: T1, ACVR1 (Homo sapiens, UniProt Q04771); assay: ThermoFisher (Lantha) kinase assay, inhibition of ACVR1; assay type: biochemical; details: ThermoFisher Assay, in vitro
T1 construct: purchased ThermoFisher
T1 sequence (Q04771 21-509): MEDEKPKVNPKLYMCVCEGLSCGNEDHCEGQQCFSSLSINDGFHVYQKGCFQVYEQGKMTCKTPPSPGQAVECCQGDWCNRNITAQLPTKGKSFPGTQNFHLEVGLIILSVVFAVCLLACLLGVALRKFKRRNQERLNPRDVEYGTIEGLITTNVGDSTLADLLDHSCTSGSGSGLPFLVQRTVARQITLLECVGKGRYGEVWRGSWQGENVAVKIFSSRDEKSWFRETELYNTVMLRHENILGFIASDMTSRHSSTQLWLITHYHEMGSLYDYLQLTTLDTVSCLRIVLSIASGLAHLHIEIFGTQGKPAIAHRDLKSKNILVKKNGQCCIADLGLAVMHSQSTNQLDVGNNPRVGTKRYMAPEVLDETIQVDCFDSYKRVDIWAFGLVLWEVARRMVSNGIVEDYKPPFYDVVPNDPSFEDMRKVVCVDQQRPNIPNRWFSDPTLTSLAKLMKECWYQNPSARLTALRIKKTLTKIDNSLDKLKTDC

ACVRL1 = target: T2, ACVRL1 (Homo sapiens, UniProt P37023); assay: ThermoFisher (Lantha) kinase assay, inhibition of ACVRL1; assay type: biochemical; details: in vitro, NA = not active at 1 μM
T2 construct: purchased ThermoFisher
T2 sequence (P37023 22-503): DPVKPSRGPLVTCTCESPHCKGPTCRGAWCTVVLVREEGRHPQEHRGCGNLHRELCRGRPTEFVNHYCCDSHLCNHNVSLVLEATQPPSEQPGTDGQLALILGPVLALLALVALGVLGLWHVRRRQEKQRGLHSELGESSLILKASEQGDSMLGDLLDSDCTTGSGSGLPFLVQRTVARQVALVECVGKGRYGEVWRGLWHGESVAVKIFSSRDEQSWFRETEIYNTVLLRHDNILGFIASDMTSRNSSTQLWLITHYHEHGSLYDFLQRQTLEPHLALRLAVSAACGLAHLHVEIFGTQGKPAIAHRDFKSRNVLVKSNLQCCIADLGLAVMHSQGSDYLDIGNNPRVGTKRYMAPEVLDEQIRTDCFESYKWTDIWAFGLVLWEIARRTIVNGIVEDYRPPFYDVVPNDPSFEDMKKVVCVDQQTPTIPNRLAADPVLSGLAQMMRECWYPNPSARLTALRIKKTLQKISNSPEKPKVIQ

[1] = Metabolic stability in mouse liver microsomes; assay type: in vitro ADME; details: some cells add hours in brackets
From the text: (§1) Exemplary compounds of the present disclosure have been evaluated for metabolic stability in mouse and human liver microsomes.

[2] = Metabolic stability in human liver microsomes; assay type: in vitro ADME; details: some cells add hours in brackets
From the text: as §1

ACVR1^WT = target: T3, ACVR1^WT (Homo sapiens, UniProt Q04771); assay: Promega NanoBRET live-cell target engagement, ACVR1; assay type: cell-based; details: in cellulo; NI = No inhibition at 40 μM
T3 sequence (Q04771 21-509): T1 sequence (Q04771 21-509)
From the text: (§2) The Promega NanoBRET target engagement system involves cell-based competitive displacement of a fluorescent NanoBRET tracer bound reversibly to a NanoLuc fusion protein. Test compounds displace the tracer dependent on their affinity for the target and reduce […] the NanoBRET signal. […]

ACVR1^R206H = target: T4, ACVR1^R206H (Homo sapiens, UniProt Q04771, R206H); assay: Promega NanoBRET live-cell target engagement, ACVR1 (R206H); assay type: cell-based; details: in cellulo; NI = No inhibition at 40 μM
T4 sequence (Q04771 21-509 R206H): T1 sequence (Q04771 21-509) with R186H
From the text: as §2

IC50 (ACVR1) | IC50 (ACVRL1) | Compound | other results
3.7 nM | 14.8 nM | CNC(=O)[C@H]1CC[C@H](n2c(-c3cc(I)c(OC)c(OC)c3)nc3ccc(C(=O)NCCCN4CCN(c5ccccc5)CC4)cc32)C1 [CDD-2205, 2-(3-iodo-4,5-dimethoxyphenyl)-1-((1S,3S)-3-(methylcarbamoyl)cyclopentyl)-N-(3-(4-phenylpiperazin-1-yl)propyl)-1H-benzo[d]imidazole-6-carboxamide] | –
5.3 nM | 26.9 nM | CNC(=O)[C@H]1CC[C@H](n2c(-c3cc(OC)c(OC)c(OC)c3)nc3ccc(C(=O)NCCCN4CCN(c5ccccc5)CC4)cc32)C1 [CDD-2206, 1-((1S,3S)-3-(methylcarbamoyl)cyclopentyl)-N-(3-(4-phenylpiperazin-1-yl)propyl)-2-(3,4,5-trimethoxyphenyl)-1H-benzo[d]imidazole-6-carboxamide] | –
19.9 nM | 20.1 nM | CNC(=O)[C@H]1CC[C@H](n2c(-c3cc(OC)c(OC)c(OC)c3)nc3ccc(C(=O)NC4COc5ccc(Cl)cc54)cc32)C1 (stereo partly drawn) [CDD-2233, N-(5-chloro-2,3-dihydrobenzofuran-3-yl)-1-((1S,3S)-3-(methylcarbamoyl)cyclopentyl)-2-(3,4,5-trimethoxyphenyl)-1H-benzo[d]imidazole-6-carboxamide] | –
– | – | CNC(=O)[C@H]1C[C@H](n2c(-c3cc(OC)c(OC)c(OC)c3)nc3ccc(C(=O)NCCCN4CCN(c5ccccc5)CC4)cc32)C1 [CDD-2235, 1-((1r,3r)-3-(methylcarbamoyl)cyclobutyl)-N-(3-(4-phenylpiperazin-1-yl)propyl)-2-(3,4,5-trimethoxyphenyl)-1H-benzo[d]imidazole-6-carboxamide] | Metabolism MLM [1]: 5.7 min; Metabolism HLM [2]: 9.7 min
65.6 nM | 534 nM | COc1cc(-c2nc3ccc(C(=O)NCCCN4CCN(c5ccccc5)CC4)cc3[nH]2)cc(OC)c1OC [CDD-2236, N-(3-(4-phenylpiperazin-1-yl)propyl)-2-(3,4,5-trimethoxyphenyl)-1H-benzo[d]imidazole-6-carboxamide] | –
3.6 nM | 12.3 nM | CNC(=O)[C@H]1C[C@H](n2c(-c3cc(OC)c(OC)c(OC)c3)nc3ccc(C(=O)NCCCN4CCN(c5cccc(C)c5C)CC4)cc32)C1 [CDD-2341, N-(3-(4-(2,3-dimethylphenyl)piperazin-1-yl)propyl)-1-((1r,3r)-3-(methylcarbamoyl)cyclobutyl)-2-(3,4,5-trimethoxyphenyl)-1H-benzo[d]imidazole-6-carboxamide] | –
– | – | COc1cc(-c2nc3ccc(C(=O)NCCC(=O)N4CCN(c5cccc(C)c5C)CC4)cc3n2C2CCC2)cc(OC)c1OC [CDD-2467, 1-cyclobutyl-N-(3-(4-(2,3-dimethylphenyl)piperazin-1-yl)-3-oxopropyl)-2-(3,4,5-trimethoxyphenyl)-1H-benzo[d]imidazole-6-carboxamide] | Metabolism MLM [1]: 9.3 min; Metabolism HLM [2]: 13.6 min
– | – | COc1cc(OC)cc(-c2nc3ccc(C(=O)NCCCN4CCN(c5cccc(C)c5C)CC4)cc3n2C2CCC2)c1 [CDD-2469, 1-cyclobutyl-2-(3,5-dimethoxyphenyl)-N-(3-(4-(2,3-dimethylphenyl)piperazin-1-yl)propyl)-1H-benzo[d]imidazole-6-carboxamide] | IC50 (ACVR1^WT): 4720 nM; IC50 (ACVR1^R206H): 4.45 µM
– | > 1000 nM | COc1ccc(-c2cccc(-c3nc4ccc(C(=O)NCCCN(C)C)cc4n3C3CCC3)n2)cc1 [CDD-2620, 1-cyclobutyl-N-(3-(dimethylamino)propyl)-2-(6-(4-methoxyphenyl)pyridin-2-yl)-1H-benzo[d]imidazole-6-carboxamide] | –
– | > 1000 nM | CN(C)CCCNC(=O)c1ccc2nc(-c3cccc(-c4ccccc4)c3)n(C3CCC3)c2c1 [CDD-2621, 2-([1,1′-biphenyl]-3-yl)-1-cyclobutyl-N-(3-(dimethylamino)propyl)-1H-benzo[d]imidazole-6-carboxamide] | –
5.7 nM | 11.5 nM | CNC(=O)[C@@H]1CC[C@@H](n2c(-c3cc(OC)c(OC)c(OC)c3)nc3ccc(C(=O)NCCCN4CCN(c5ccccc5)CC4)cc32)C1 [CDD-2622, 1-((1R,3R)-3-(methylcarbamoyl)cyclopentyl)-N-(3-(4-phenylpiperazin-1-yl)propyl)-2-(3,4,5-trimethoxyphenyl)-1H-benzo[d]imidazole-6-carboxamide] | –
– | > 1000 nM | CN(C)CCCNC(=O)c1ccc2nc(-c3cncc4ccccc34)n(C3CCC3)c2c1 [CDD-2623, 1-cyclobutyl-N-(3-(dimethylamino)propyl)-2-(isoquinolin-4-yl)-1H-benzo[d]imidazole-6-carboxamide] | –
87.1 nM | 407 nM | CNC(=O)[C@H]1C[C@H](n2c(-c3cc(F)cc(OC)c3)nc3ccc(C(=O)NCCCN(C)C)cc32)C1 [CDD-2682, N-(3-(dimethylamino)propyl)-2-(3-fluoro-5-methoxyphenyl)-1-((1r,3r)-3-(methylcarbamoyl)cyclobutyl)-1H-benzo[d]imidazole-6-carboxamide] | –
77.4 nM | 190 nM | CNC(=O)[C@H]1C[C@H](n2c(-c3ccc(F)c(OC)c3)nc3ccc(C(=O)NCCCN(C)C)cc32)C1 [CDD-2683, N-(3-(dimethylamino)propyl)-2-(4-fluoro-3-methoxyphenyl)-1-((1r,3r)-3-(methylcarbamoyl)cyclobutyl)-1H-benzo[d]imidazole-6-carboxamide] | –
84 nM | 197 nM | CNC(=O)[C@H]1C[C@H](n2c(-c3cccc(OC)c3)nc3ccc(C(=O)NCCCN(C)C)cc32)C1 [CDD-2684, N-(3-(dimethylamino)propyl)-2-(3-methoxyphenyl)-1-((1r,3r)-3-(methylcarbamoyl)cyclobutyl)-1H-benzo[d]imidazole-6-carboxamide] | –
121 nM | 390 nM | CNC(=O)[C@H]1C[C@H](n2c(-c3ccc(OC)c(OC)c3)nc3ccc(C(=O)NCCCN(C)C)cc32)C1 [CDD-2685, 2-(3,4-dimethoxyphenyl)-N-(3-(dimethylamino)propyl)-1-((1r,3r)-3-(methylcarbamoyl)cyclobutyl)-1H-benzo[d]imidazole-6-carboxamide] | –
– | – | COc1cc(-c2nc3ccc(C(=O)NCCCN4CCN(C)C(c5ccccc5)C4)cc3n2C2CCC2)cc(OC)c1OC (stereo not shown) [CDD-2793, 1-cyclobutyl-N-(3-(4-methyl-3-phenylpiperazin-1-yl)propyl)-2-(3,4,5-trimethoxyphenyl)-1H-benzo[d]imidazole-6-carboxamide] | IC50 (ACVR1^WT): 2720 nM; IC50 (ACVR1^R206H): 4.28 µM
– | – | COc1cc(-c2nc3ccc(C(=O)NCCN4CCN(C5CCCCC5)CC4)cc3n2C2CCC2)cc(OC)c1OC [CDD-2794, 1-cyclobutyl-N-(2-(4-cyclohexylpiperazin-1-yl)ethyl)-2-(3,4,5-trimethoxyphenyl)-1H-benzo[d]imidazole-6-carboxamide] | IC50 (ACVR1^WT): 2090 nM; IC50 (ACVR1^R206H): 3.16 µM
– | – | COc1cc(-c2nc3ccc(C(=O)NCC4(O)CCN(Cc5ccccc5)CC4)cc3n2C2CCC2)cc(OC)c1OC [CDD-2795, N-((1-benzyl-4-hydroxypiperidin-4-yl)methyl)-1-cyclobutyl-2-(3,4,5-trimethoxyphenyl)-1H-benzo[d]imidazole-6-carboxamide] | IC50 (ACVR1^WT): 387 nM; IC50 (ACVR1^R206H): 0.459 µM

Compound | IC50 (ACVR1) | IC50 (ACVRL1) | other results
1-cyclopropyl-N-(3-(4-(2,3-dimethylphenyl)piperazin-1-yl)propyl)-2-(3,4,5-trimethoxyphenyl)-1H-benzo[d]imidazole-6-carboxamide [CDD-2468] | 135 nM | 4050 nM | –
